How the values were obtained:
[1] = molecular target: T1, 5-hydroxytryptamine receptor 2C (Homo sapiens) (UniProt P28335); test: Antagonist activity at recombinant human 5-HT2C assessed as inhibition of agonist-induced effect at 10 uM by aequorin reporter based assay; assay type: functional
T1 sequence (whole entry): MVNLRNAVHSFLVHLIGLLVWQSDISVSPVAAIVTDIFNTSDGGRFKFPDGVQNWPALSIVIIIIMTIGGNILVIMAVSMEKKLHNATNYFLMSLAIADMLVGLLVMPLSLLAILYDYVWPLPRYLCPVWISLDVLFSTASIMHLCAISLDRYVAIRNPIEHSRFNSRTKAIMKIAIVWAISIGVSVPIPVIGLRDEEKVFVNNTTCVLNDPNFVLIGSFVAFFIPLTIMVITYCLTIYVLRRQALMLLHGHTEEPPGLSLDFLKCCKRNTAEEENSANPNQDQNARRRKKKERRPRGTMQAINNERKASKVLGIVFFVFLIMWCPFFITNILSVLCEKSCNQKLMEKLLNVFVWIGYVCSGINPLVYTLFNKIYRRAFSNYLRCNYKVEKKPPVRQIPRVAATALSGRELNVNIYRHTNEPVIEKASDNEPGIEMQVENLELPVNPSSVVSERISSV

[2] = molecular target: T2, 5-hydroxytryptamine receptor 3A (Homo sapiens) (UniProt P46098); test: Agonist activity at recombinant human 5-HT3 at 10 uM by aequorin reporter based assay relative to agonist
T2 sequence (whole entry): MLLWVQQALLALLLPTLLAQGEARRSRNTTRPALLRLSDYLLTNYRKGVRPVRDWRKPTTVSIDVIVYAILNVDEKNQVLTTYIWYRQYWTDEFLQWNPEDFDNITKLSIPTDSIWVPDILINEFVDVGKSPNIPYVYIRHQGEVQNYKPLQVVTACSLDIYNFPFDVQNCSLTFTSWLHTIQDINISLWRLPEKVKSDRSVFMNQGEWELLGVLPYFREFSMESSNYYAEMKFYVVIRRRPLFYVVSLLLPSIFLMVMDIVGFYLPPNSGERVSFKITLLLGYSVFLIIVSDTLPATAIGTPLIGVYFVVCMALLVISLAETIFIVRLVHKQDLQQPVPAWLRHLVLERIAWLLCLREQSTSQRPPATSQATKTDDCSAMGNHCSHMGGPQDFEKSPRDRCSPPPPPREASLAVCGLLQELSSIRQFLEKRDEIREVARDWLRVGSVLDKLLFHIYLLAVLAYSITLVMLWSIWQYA

[3] = molecular target: 5-hydroxytryptamine receptor 5A (Homo sapiens) (UniProt P47898); test: Antagonist activity at recombinant human 5-HT5A assessed as inhibition of agonist-induced effect at 10 uM by aequorin reporter based assay; assay type: functional
Sequence of 5-hydroxytryptamine receptor 5A (Homo sapiens) (P47898 whole entry): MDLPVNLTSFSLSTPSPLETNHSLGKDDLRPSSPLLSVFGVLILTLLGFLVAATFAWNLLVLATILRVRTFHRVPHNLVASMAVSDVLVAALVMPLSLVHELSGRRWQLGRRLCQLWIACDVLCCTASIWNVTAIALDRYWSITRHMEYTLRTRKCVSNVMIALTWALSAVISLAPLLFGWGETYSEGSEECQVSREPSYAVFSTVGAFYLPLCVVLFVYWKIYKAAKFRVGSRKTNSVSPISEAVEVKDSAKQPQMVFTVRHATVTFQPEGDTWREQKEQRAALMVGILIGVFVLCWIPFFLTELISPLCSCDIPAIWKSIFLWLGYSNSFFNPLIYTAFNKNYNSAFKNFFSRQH

[4] = molecular target: T3, Muscarinic acetylcholine receptor M1 (Homo sapiens) (UniProt P11229); test: Antagonist activity at recombinant human muscarinic M1 receptor assessed as inhibition of agonist-induced effect at 10 uM by aequorin reporter based assay; assay type: functional
T3 sequence (whole entry): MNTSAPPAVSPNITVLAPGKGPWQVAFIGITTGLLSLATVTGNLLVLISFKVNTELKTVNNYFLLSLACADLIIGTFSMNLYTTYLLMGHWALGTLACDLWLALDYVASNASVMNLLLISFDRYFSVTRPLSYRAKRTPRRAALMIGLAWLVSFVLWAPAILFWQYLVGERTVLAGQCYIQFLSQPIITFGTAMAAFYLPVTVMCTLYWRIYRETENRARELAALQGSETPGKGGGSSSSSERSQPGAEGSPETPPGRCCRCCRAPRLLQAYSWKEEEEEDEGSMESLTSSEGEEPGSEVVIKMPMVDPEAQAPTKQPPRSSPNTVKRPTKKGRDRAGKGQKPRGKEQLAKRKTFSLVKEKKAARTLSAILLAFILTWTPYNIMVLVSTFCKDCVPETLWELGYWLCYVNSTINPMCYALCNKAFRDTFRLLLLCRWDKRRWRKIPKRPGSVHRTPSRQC

[5] = molecular target: T4, Muscarinic acetylcholine receptor M4 (Homo sapiens) (UniProt P08173); test: Agonist activity at recombinant human muscarinic M4 receptor at 10 uM by GTPgamma[35S] binding-based assay relative to agonist; assay type: functional
T4 sequence (whole entry): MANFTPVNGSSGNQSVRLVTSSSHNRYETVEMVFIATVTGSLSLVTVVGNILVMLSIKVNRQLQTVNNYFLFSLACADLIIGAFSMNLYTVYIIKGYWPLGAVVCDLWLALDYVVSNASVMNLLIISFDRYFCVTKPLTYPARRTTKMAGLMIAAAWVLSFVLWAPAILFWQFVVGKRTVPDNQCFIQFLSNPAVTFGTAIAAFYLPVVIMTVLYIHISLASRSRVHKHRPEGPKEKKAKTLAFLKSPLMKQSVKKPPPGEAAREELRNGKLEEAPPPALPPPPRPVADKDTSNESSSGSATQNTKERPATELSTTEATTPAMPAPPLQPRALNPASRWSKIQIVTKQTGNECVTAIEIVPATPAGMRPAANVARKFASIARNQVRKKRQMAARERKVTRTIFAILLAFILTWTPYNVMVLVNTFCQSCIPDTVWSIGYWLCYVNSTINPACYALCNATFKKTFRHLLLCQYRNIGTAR

[6] = molecular target: T5, Neuropeptide Y receptor type 1 (Homo sapiens) (UniProt P25929); test: Agonist activity at recombinant human NPY1R assessed as induction of cAMP levels at 10 uM by HTRF assay relative to agonist; assay type: functional
T5 sequence (whole entry): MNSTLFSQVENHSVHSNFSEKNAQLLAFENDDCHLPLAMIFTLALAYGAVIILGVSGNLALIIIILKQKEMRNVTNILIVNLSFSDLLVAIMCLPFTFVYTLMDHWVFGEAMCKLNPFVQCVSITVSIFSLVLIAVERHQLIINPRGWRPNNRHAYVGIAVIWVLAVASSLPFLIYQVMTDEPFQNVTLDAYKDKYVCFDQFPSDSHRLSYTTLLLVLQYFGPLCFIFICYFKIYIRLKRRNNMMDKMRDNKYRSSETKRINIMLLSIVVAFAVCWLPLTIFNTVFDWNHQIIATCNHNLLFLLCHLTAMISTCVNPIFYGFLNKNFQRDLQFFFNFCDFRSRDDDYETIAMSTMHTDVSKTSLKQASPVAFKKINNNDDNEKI

[7] = molecular target: Vasopressin V1a receptor (Homo sapiens) (UniProt P37288); test: Agonist activity at recombinant human V1A receptor at 10 uM by aequorin reporter based assay relative to agonist; assay type: functional
Sequence of Vasopressin V1a receptor (Homo sapiens) (P37288 whole entry, looked up): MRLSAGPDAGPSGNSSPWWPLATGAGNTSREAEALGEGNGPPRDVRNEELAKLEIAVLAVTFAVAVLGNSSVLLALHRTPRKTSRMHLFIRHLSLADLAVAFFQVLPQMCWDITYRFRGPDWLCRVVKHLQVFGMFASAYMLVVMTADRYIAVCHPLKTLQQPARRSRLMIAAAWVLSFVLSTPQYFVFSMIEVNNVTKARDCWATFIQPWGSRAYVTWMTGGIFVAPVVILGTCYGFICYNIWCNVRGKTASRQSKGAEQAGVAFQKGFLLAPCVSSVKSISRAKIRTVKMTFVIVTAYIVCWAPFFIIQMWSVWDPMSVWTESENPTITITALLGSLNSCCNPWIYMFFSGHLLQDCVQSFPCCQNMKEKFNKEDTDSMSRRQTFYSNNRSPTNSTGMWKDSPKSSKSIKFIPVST

Compound | inhibition [1] | Activity [2] | inhibition [3] | inhibition [4] | Activity [5] | Activity [6] | Activity [7]
CN(CCCNC(=O)c1cccc(Br)c1)Cc1ccccc1 | 54% | 0% | 23% | 96% | -12% | 1% | -1%
CN(CCCNC(=O)c1ccc(Br)cc1)Cc1ccccc1 | 34% | 1% | 8% | 89% | -10% | 5% | 1%
COc1cccc(C(=O)NCCCN(C)Cc2ccccc2)c1 | 36% | 0% | 16% | 34% | -2% | 0% | 0%
CN(CCNC(=O)c1ccc(Cl)cc1)Cc1ccccc1 | 92% | 0% | 22% | 69% | -4% | -2% | 0%
CCCc1ccc(C(=O)NCCCN(C)Cc2ccccc2)cc1 | 94% | -1% | 13% | 98% | -10% | 2% | 0%
CN(CCCNC(=O)c1ccc(C(F)(F)F)cc1)Cc1ccccc1 | 24% | -1% | 14% | 88% | -4% | 9% | 0%
CN(CCCNC(=O)c1ccc([N+](=O)[O-])cc1)Cc1ccccc1 | 11% | 0% | 17% | 85% | -5% | 1% | -1%
CN(CCCNC(=O)c1ccc(Cl)cc1)CCc1ccccc1 | 95% | -1% | 40% | 86% | -8% | -4% | 0%
CN(CCNC(=O)c1ccc(C#N)cc1)Cc1ccccc1 | 34% | 0% | 28% | 6% | -1% | 4% | 0%
COc1ccc(C(=O)NCCCN(C)Cc2ccccc2)cc1 | 33% | 0% | 16% | 20% | -1% | 1% | 0%
CN(CCCNC(=O)c1ccc(Cl)cc1)Cc1ccccc1 | 43% | 2% | 17% | 89% | -8% | 2% | 1%
CN(CCNC(=O)c1ccc([N+](=O)[O-])cc1)Cc1ccccc1 | 80% | 0% | 36% | 31% | 0% | 3% | 0%

— ChEMBL document CHEMBL4130363, “Synthesis and pharmacological evaluation of benzamide derivatives as potent and selective sigma-1 protein ligands” (Eur J Med Chem, 2017)
